By IC50 is commonly meant the midpoint of a concentration-inhibition curve. The low end stands for inhibition by little substance, the high end for a need for much substance.

Residues, ends and D or L forms follow the SMILES beside them. *: point of attachment. Ethoxycarbonyl = CCOC(=O)*

The target in assay [1] is HLA-DRB1*01:01. Nature of the assay: Inhibitory concentration to inhibit the binding of biotinylated rat myelin basic protein peptide (RMBP90-102) against DR1 allele of class II MHC for 20 min.
For assay [2], the target named is HLA-DRB1*01:01. Nature of the assay: Inhibitory concentration required to inhibit the binding of biotinylated rat myelin basic protein peptide (RMBP90-102) against DR1 allele of class II for 5 hr.
The species named for assay [3] is Rattus norvegicus. Nature of the assay: Inhibitory concentration of compound to inhibit the binding of biotinylated rat myelin basic protein peptide (RMBP90-102) against DR4 allele of class II for 20 min. It counts as functional.
The species named for assay [4] is Rattus norvegicus. Description: Inhibitory concentration of compound to inhibit the binding of biotinylated rat myelin basic protein peptide (RMBP90-102) against DR4 allele of class II for 5 hr. The assay is classed as functional.
For assay [5], the species on record is Rattus norvegicus. Description: Inhibitory concentration of compound to inhibit the binding of biotinylated rat myelin basic protein peptide (RMBP90-102) against DR1 allele of class II for 45 min. The assay is classed as functional.

With `CCOC(=O)N[C@H](Cc1ccc(OC)cc1)C(=O)N[C@H](C(=O)N[C@@H](C)C(=O)N[C@@H](CC(C)C)C(N)=O)C(C)C`, the IC50 in assay [1] stood at 0.046 µM; in assay [2] it was 0.18 µM.
For `CCOC(=O)N[C@H](CC(=O)c1ccccc1)C(=O)N[C@H](C(=O)N[C@@H](C)C(=O)N[C@@H](CC(C)C)C(N)=O)C(C)C` the same measures were 5.7 µM and 45 µM.
For `CCOC(=O)N[C@H](Cc1ccc(Cl)cc1)C(=O)N[C@H](C(=O)N[C@@H](C)C(=O)N[C@@H](CC(C)C)C(N)=O)C(C)C`, in that order: 0.019 µM and 0.073 µM.
For `CCOC(=O)N[C@H](Cc1ccc(OC(C)=O)cc1)C(=O)N[C@H](C(=O)N[C@@H](C)C(=O)N[C@@H](CC(C)C)C(N)=O)C(C)C`, in that order: 0.24 µM and 1.9 µM.
For `CCOC(=O)N[C@H](CSCc1ccccc1)C(=O)N[C@H](C(=O)N[C@@H](C)C(=O)N[C@@H](CC(C)C)C(N)=O)C(C)C`, the figures for the IC50 in assay [1] and in assay [2] were 0.27 µM and 7 µM, respectively.
For `CCOC(=O)N[C@H](Cc1cccnc1)C(=O)N[C@H](C(=O)N[C@@H](C)C(=O)N[C@@H](CC(C)C)C(N)=O)C(C)C` the same measures were 5.3 µM and 28 µM.
With `CCOC(=O)N[C@@H](Cc1ccccc1)C(=O)N[C@H](C(=O)N[C@@H](C)C(=O)N[C@@H](CC(=O)O)C(N)=O)C(C)C` (Ethoxycarbonyl-FVAD-NH2), the IC50 in assay [3] stood at 1.2 µM; in assay [4], 50 µM.
For `CCOC(=O)N[C@@H](Cc1ccccc1)C(=O)N[C@H](C(=O)N[C@@H](C)C(=O)N[C@@H](CC(C)C)C(N)=O)C(C)C` (Ethoxycarbonyl-FVAL-NH2), the IC50 in assay [3] was 8.2 µM. That is a single-digit micromolar value.
The compound `CC(C)C[C@H](NC(=O)[C@H](C)NC(=O)[C@@H](NC(=O)[C@@H](N)Cc1ccccc1)C(C)C)C(N)=O` (H-FVAL-NH2) yielded an IC50 in assay [5] of 1.8 µM.

The values above are taken from ChEMBL document CHEMBL1129861, “SAR for MHC class II binding tetrapeptides: Correlation with potential binding site” (Bioorg Med Chem Lett, 1997).
